In test [1] the target is T1, human CB2 receptors (Homo sapiens, UniProt P34972).
T1 construct: expressed in transfected cells; host or cells: CHO cells
The experiment in a line: functional cAMP assay, CHO cells expressing human CB2. It counts as cell-based. Here is the method:
The growth medium was exchanged with Krebs Ringer Bicarbonate buffer with 1 mM IBMX and incubated at 30° C. for 30 min. Compounds were added to a final assay volume of 100 μl and incubated for 30 min at 30° C. […] The time-resolved energy transfer is measured by a TRF reader (Evotec Technologies GmbH), equipped with a ND:YAG laser as excitation source. The plate is measured twice with the excitation at 355 nm and at the emission with a delay of 100 ns and a gate of 100 ns, total exposure time 10 s at 730 (bandwidth 30 nm) or 645 nm (bandwidth 75 nm), respectively.
EC50 values were determined using Activity Base analysis (ID Business Solution, Limited).

Test [2] addresses T2, human CB1 receptors (Homo sapiens, UniProt P21554).
T2 construct: expressed in transfected cells; host or cells: CHO cells
The experiment in a line: functional cAMP assay, CHO cells expressing human CB1. The test is classed as cell-based. On the procedure: CHO cells expressing human CB1 or CB2 receptors are seeded 17-24 hours prior to the experiment 50.000 cells per well in a black 96 well plate with flat clear bottom (Corning Costar #3904) in DMEM (Invitrogen No. 31331), 1×HT supplement, with 10% fetal calf serum and incubated at 5% CO2 and 37° C. in a humidified incubator. The growth medium was exchanged with Krebs Ringer Bicarbonate buffer with 1 mM IBMX and incubated at 30° C. for 30 min. Compounds were added to a final assay volume of 100 μl and incubated for 30 min at 30° C. Using the cAMP-Nano-TRF detection kit the assay (Roche Diagnostics) was stopped by the addition of 50 μl lysis reagent (Tris, NaCl, 1.5% Triton X100, 2.5% NP40, 10% NaN3) and 50 μl detection solutions (20 μM mAb Alexa700-cAMP 1:1, and 48 μM Ruthenium-2-AHA-cAMP) and shaken for 2 h at room temperature. The time-resolved energy transfer is measured by a TRF reader (Evotec Technologies GmbH), equipped with a ND:YAG laser as excitation source. The plate is measured twice with the excitation at 355 nm and at the emission with a delay of 100 ns and a gate of 100 ns, total exposure time 10 s at 730 (bandwidth 30 nm) or 645 nm (bandwidth 75 nm), respectively. The FRET signal is calculated as follows: FRET=T730-Alexa730-P(T645-B645) with P=Ru730-B730/Ru645-B645, where T730 is the test well measured at 730 nM, T645 is the test well measured at 645 nm, B730 and B645 are the buffer controls at 730 nm and 645 nm, respectively. cAMP content is determined from the function of a standard curve spanning from 10 μM to 0.1 nM cAMP.
EC50 values were determined using Activity Base analysis (ID Business Solution, Limited). The EC50 values for a wide range of cannabinoid agonists generated from this assay were in agreement with the values published in the scientific literature.
(Changes in cAMP serve as a functional read-out for many G protein-coupled receptors.)

Setting [3] is: CHO cells expressing human CB2, read-out: Ec50:CB2 - hu cAMP.
Setting [4] is: CHO cells expressing human CB1, read-out: Ec50:CB1 - hu cAMP.

Like-named read-outs stand apart in the source and are kept apart here.

T2 sequence (P21554 whole entry): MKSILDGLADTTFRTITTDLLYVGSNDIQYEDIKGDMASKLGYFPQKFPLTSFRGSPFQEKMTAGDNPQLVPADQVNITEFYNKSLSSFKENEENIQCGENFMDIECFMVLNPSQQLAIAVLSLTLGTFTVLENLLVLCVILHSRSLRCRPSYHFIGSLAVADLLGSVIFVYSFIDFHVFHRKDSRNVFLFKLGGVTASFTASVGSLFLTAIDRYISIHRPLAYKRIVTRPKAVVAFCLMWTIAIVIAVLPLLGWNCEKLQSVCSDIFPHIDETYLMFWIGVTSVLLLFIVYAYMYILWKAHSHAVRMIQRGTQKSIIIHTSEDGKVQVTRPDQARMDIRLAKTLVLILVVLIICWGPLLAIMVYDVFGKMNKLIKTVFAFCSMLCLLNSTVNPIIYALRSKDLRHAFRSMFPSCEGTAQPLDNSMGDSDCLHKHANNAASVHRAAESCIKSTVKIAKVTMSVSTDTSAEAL
T1 sequence (P34972 whole entry): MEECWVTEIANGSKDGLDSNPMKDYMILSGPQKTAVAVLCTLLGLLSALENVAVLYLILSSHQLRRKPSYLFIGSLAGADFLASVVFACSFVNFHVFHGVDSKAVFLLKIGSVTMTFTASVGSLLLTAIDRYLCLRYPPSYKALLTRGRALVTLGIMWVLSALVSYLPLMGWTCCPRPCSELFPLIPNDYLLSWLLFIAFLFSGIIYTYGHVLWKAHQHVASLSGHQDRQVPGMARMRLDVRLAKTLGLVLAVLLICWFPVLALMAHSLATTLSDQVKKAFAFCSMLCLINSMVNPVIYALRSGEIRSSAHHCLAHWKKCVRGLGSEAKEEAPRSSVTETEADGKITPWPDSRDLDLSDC

As for `O=C(N1CCc2ccccc2C1)C12CC3CC(CC(C3)C1)C2` [Example 1, Adamantan-1-yl-(3,4-dihydro-1H-isoquinolin-2-yl)-methanone], the half-maximal effective concentration (EC50) in test [1] (setting [3]) was 69.4 nM; in test [2] (setting [4]), greater than 10000 nM.

For the molecule `O=C1CCN(C(=O)C23CC4CC(CC(C4)C2)C3)c2ccccc21` [Example 3, 1-(Adamantane-1-carbonyl)-2,3-dihydro-1H-quinolin-4-one], the half-maximal effective concentration (EC50) in test [1] (setting [3]) was 330 nM; in test [2] (setting [4]) it was greater than 10000 nM.

For `CC(C)(C)NC(=O)C1CCN(C(=O)C23CC4CC(CC(C4)C2)C3)c2ccccc21` (stereo not drawn) [Example 4, 1-(Adamantane-1-carbonyl)-1,2,3,4-tetrahydro-quinoline-4-carboxylic acid tert-butylamide], the EC50 in test [1] (setting [3]) was 445 nM; in test [2] (setting [4]), greater than 10000 nM.

In the case of `COC(=O)C1Cc2ccccc2N(C(=O)C23CC4CC(CC(C4)C2)C3)C1` (stereo not drawn) [Example 5, 1-(Adamantane-1-carbonyl)-1,2,3,4-tetrahydro-quinoline-3-carboxylic acid methyl ester], the EC50 in test [1] (setting [3]) is 221 nM; in test [2] (setting [4]), greater than 10000 nM.

Regarding `CC(C)C1(CO)CCN(C(=O)C23CC4CC(CC(C4)C2)C3)c2ccccc21` (stereo not drawn) [Example 6, Adamantan-1-yl-(4-hydroxymethyl-4-isopropyl-3,4-dihydro-2H-quinolin-1-yl)-methanone], the EC50 is 400 nM in test [1] (setting [3]) and greater than 10000 nM in test [2] (setting [4]).

As to `O=C(N1CCOc2ccccc21)C12CC3CC(CC(C3)C1)C2` [Example 7, Adamantan-1-yl-(2,3-dihydro-benzo[1,4]oxazin-4-yl)-methanone], the EC50 is 180 nM in test [1] (setting [3]) and greater than 10000 nM in test [2] (setting [4]).

As for `Cc1cccc2c1N(C(=O)C13CC4CC(CC(C4)C1)C3)CCC2` [Example 8, Adamantan-1-yl-(8-methyl-3,4-dihydro-2H-quinolin-1-yl)-methanone], the values for the EC50 in test [1] (setting [3]) and in test [2] (setting [4]) were 277 nM and greater than 10000 nM, respectively.

As to `O=C(N1CCC(O)c2ccccc21)C12CC3CC(CC(C3)C1)C2` (stereo not drawn) [Example 9, Adamantan-1-yl-(4-hydroxy-3,4-dihydro-2H-quinolin-1-yl)-methanone], the EC50 in test [1] (setting [3]) was 265 nM; in test [2] (setting [4]), greater than 10000 nM.

As for `CC1Cc2ccccc2N1C(=O)C12CC3CC(CC(C3)C1)C2` (stereo not drawn) [Example 10, Adamantan-1-yl-(2-methyl-2,3-dihydro-indol-1-yl)-methanone], the EC50 in test [1] (setting [3]) was 261 nM; in test [2] (setting [4]), greater than 10000 nM.

On to `O=C(N1CCc2ccc([N+](=O)[O-])cc21)C12CC3CC(CC(C3)C1)C2` [Example 13, Adamantan-1-yl-(6-nitro-2,3-dihydro-indol-1-yl)-methanone], for which the EC50 is 19.4 nM in test [1] and greater than 10000 nM in test [2].

Consider `O=C(N1CCc2cc([N+](=O)[O-])ccc21)C12CC3CC(CC(C3)C1)C2` [Example 14, Adamantan-1-yl-(5-nitro-2,3-dihydro-indol-1-yl)-methanone], for which the EC50 in test [1] (setting [3]) was 82 nM; in test [2] (setting [4]) it was greater than 10000 nM.

For `O=C(N1CCc2cc(Br)ccc21)C12CC3CC(CC(C3)C1)C2` [Example 15, Adamantan-1-yl-(5-bromo-2,3-dihydro-indol-1-yl)-methanone], the EC50 in test [1] is 11.5 nM; in test [2], greater than 10000 nM.

In the case of `O=C(N1CCc2c(F)cc(F)cc21)C12CC3CC(CC(C3)C1)C2` [Example 16, Adamantan-1-yl-(4,6-difluoro-2,3-dihydro-indol-1-yl)-methanone], the results for the EC50 in test [1] and in test [2] were 54 nM and greater than 10000 nM, respectively.

For `COC(=O)c1ccc2c(c1)CCN2C(=O)C12CC3CC(CC(C3)C1)C2` [Example 19, 1-(Adamantane-1-carbonyl)-2,3-dihydro-1H-indole-5-carboxylic acid methyl ester], the values for the EC50 in test [1] (setting [3]) and in test [2] (setting [4]) were 70.6 nM and greater than 10000 nM, respectively.

With `O=C(N1CCc2c1ccnc2Cl)C12CC3CC(CC(C3)C1)C2` [Example 20, Adamantan-1-yl-(4-chloro-2,3-dihydro-pyrrolo[3,2-c]pyridin-1-yl)-methanone], the EC50 in test [1] (setting [3]) was 273 nM; in test [2] (setting [4]) it was greater than 10000 nM.

As to `COc1cccc2c1N(C(=O)C13CC4CC(CC(C4)C1)C3)CC2` [Example 22, Adamantan-1-yl-(7-methoxy-2,3-dihydro-indol-1-yl)-methanone], the EC50 in test [1] is 26.4 nM; in test [2], greater than 10000 nM.

Take `CC1(C)CN(C(=O)C23C[C@H]4C[C@@H](C2)C[C@@H](C3)C4)c2ccccc21` [Example 23, Adamantan-1-yl-(3,3-dimethyl-2,3-dihydro-indol-1-yl)-methanone]: the EC50 is 15.9 nM in test [1] and greater than 10000 nM in test [2].

With `COC(=O)c1cccc2c1CCN2C(=O)[C@]12C[C@H]3C[C@H](C[C@H](C3)C1)C2` [Example 24, 1-(Adamantane-1-carbonyl)-2,3-dihydro-1H-indole-4-carboxylic acid methyl ester], the EC50 was 42.1 nM in test [1] and greater than 10000 nM in test [2].

As to `CC1c2ccccc2N(C(=O)C23C[C@H]4C[C@@H](C2)C[C@@H](C3)C4)C1C` (stereo partly drawn) [Example 25, Adamantan-1-yl-(2,3-dimethyl-2,3-dihydro-indol-1-yl)-methanone], the EC50 in test [1] (setting [3]) is 163 nM; in test [2] (setting [4]), greater than 10000 nM.

On to `Cc1ccc2c(c1)CCN2C(=O)C12CC3CC(CC(C3)C1)C2` [Example 26, Adamantan-1-yl-(5-methyl-2,3-dihydro-indol-1-yl)-methanone], for which the results for the EC50 in test [1] (setting [3]) and in test [2] (setting [4]) were 10.4 nM and greater than 10000 nM, respectively.

Take `Cc1ccc2c(c1)N(C(=O)C13CC4CC(CC(C4)C1)C3)CC2` [Example 27, Adamantan-1-yl-(6-methyl-2,3-dihydro-indol-1-yl)-methanone]: the EC50 is 6.6 nM in test [1] (setting [3]) and greater than 10000 nM in test [2] (setting [4]).

For the molecule `COc1cccc2c1CCN2C(=O)C12CC3CC(CC(C3)C1)C2` [Example 29, Adamantan-1-yl-(4-methoxy-2,3-dihydro-indol-1-yl)-methanone], the EC50 in test [1] (setting [3]) is 29.6 nM; in test [2] (setting [4]) it was greater than 10000 nM.

As for `CN1CCN(C(=O)C23C[C@H]4C[C@@H](C2)C[C@@H](C3)C4)c2ccccc21` [Example 31, Adamantan-1-yl-(4-methyl-3,4-dihydro-2H-quinoxalin-1-yl)-methanone], the concentration for a half-maximal effect (EC50) in test [1] is 28.9 nM; in test [2], greater than 10000 nM.

Regarding `CC(C)N1CCN(C(=O)C23CC4CC(CC(C4)C2)C3)c2ccccc21` [Example 32, Adamantan-1-yl-(4-isopropyl-3,4-dihydro-2H-quinoxalin-1-yl)-methanone], the EC50 was 6.2 nM in test [1] and greater than 10000 nM in test [2].

As for `CCCCOC1CCN(C(=O)C23CC4CC(CC(C4)C2)C3)c2ccccc21` (stereo not drawn) [Example 34, Adamantan-1-yl-(4-butoxy-3,4-dihydro-2H-quinolin-1-yl)-methanone], the EC50 in test [1] was 7.2 nM; in test [2], greater than 10000 nM.

Regarding `CC(C)OC1CCN(C(=O)C23CC4CC(CC(C4)C2)C3)c2ccccc21` (stereo not drawn) [Example 35, Adamantan-1-yl-(4-isopropoxy-3,4-dihydro-2H-quinolin-1-yl)-methanone], the EC50 was 122 nM in test [1] (setting [3]) and greater than 10000 nM in test [2] (setting [4]).

As to `O=C(C1[C@H]2C[C@@H]3C[C@@H](C[C@H]1C3)C2)N1CCc2ccccc21` (stereo partly drawn) [Example 37, Adamantan-2-yl-(2,3-dihydro-indol-1-yl)-methanone], the results for the EC50 in test [1] and in test [2] were 6.7 nM and greater than 10000 nM, respectively.

As for `O=C(NC12CC3CC(CC(C3)C1)C2)N1CCc2ccccc21` [Example 38, 2,3-Dihydro-indole-1-carboxylic acid adamantan-1-ylamide], the EC50 was 2.4 nM in test [1] (setting [3]) and greater than 10000 nM in test [2] (setting [4]).

As to `O=C(N1CCc2cc(F)c(F)cc21)C12CC3CC(CC(C3)C1)C2` [Example 39, Adamantan-1-yl-(5,6-difluoro-2,3-dihydro-indol-1-yl)-methanone], the EC50 was 17.6 nM in test [1] (setting [3]) and greater than 10000 nM in test [2] (setting [4]).

Regarding `O=C1C2CC3CC1CC(C(=O)N1CCc4ccccc41)(C3)C2` [Example 40, 5-(2,3-Dihydro-indole-1-carbonyl)-adamantan-2-one], the results for the EC50 in test [1] (setting [3]) and in test [2] (setting [4]) were 594 nM and greater than 10000 nM, respectively.

The EC50 is the concentration at which the effect is half-maximal.

The values above are taken from patent publication US9090615B2, “Adamantyl derivatives as cannabinoid receptor 2 agonists” (Hoffmann-La Roche Inc., priority 2012, dated 2015).
